Results reported in ChEMBL document CHEMBL1909046, “DrugMatrix in vitro pharmacology data”.

Assays:
[1] = biological target: Cytochrome P450 3A4 (Homo sapiens, UniProt P08684); details: bti-tn-5b1-4; also: in other assays of this panel Not Active means under 50% inhibition at 10 µM
[2] = biological target: Sodium-dependent noradrenaline transporter (Homo sapiens, UniProt P23975); assay: DRUGMATRIX: Norepinephrine Transporter radioligand binding (ligand: [125I] RTI-55); type: cell membranes, MDCK, Membrane; details: mdck; Not Active = under 50% inhibition at 10 µM
[3] = biological target: Cytochrome P450 2C19 (Homo sapiens, UniProt P33261); details: bti-tn-5b1-4; also: in other assays of this panel Not Active means under 50% inhibition at 10 µM
[4] = biological target: Cytochrome P450 2D6 (Homo sapiens, UniProt P10635); details: bti-tn-5b1-4; also: in other assays of this panel Not Active means under 50% inhibition at 10 µM
[5] = biological target: T1, Cytochrome P450 1A2 (Homo sapiens, UniProt P05177); details: bti-tn-5b1-4; also: in other assays of this panel Not Active means under 50% inhibition at 10 µM
T1 sequence (P05177 whole entry): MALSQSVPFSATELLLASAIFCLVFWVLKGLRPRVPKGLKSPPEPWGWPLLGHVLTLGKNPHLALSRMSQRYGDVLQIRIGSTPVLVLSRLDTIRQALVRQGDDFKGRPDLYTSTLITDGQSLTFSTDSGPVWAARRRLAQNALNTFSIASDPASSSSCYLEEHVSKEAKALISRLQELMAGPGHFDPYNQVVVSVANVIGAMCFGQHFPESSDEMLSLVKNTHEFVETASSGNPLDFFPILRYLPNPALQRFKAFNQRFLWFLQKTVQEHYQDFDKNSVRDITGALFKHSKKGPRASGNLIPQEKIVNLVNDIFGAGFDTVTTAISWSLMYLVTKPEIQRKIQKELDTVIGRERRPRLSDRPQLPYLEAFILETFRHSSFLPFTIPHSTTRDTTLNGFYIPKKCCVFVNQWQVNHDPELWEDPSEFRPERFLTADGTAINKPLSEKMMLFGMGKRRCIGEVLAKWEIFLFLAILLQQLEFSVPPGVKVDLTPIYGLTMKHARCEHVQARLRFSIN

[6] = biological target: T2, Estrogen receptor (Homo sapiens, UniProt P03372); details: sf9; also: in other assays of this panel Not Active means under 50% inhibition at 10 µM
T2 sequence (P03372 whole entry): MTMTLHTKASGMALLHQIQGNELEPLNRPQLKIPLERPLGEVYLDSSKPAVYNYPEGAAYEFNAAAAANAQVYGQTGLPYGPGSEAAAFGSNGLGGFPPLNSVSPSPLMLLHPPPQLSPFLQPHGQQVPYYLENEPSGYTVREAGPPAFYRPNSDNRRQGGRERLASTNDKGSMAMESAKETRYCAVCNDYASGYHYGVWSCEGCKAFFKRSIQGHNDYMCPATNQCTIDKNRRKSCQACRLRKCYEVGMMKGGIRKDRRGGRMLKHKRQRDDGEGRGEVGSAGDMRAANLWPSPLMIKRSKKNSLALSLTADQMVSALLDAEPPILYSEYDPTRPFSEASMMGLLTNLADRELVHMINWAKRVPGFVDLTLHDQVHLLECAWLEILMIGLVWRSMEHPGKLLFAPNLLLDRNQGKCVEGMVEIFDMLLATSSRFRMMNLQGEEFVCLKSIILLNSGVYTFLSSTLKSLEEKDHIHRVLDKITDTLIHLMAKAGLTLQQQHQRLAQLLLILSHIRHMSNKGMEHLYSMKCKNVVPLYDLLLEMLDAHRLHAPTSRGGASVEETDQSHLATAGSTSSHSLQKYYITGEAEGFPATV

[7] = biological target: Voltage-gated inwardly rectifying potassium channel KCNH2 (Homo sapiens, UniProt Q12809); details: hek293; also: in other assays of this panel Not Active means under 50% inhibition at 10 µM
[8] = biological target: Estrogen receptor beta (Homo sapiens, UniProt Q92731); details: sf9; also: in other assays of this panel Not Active means under 50% inhibition at 10 µM
[9] = biological target: Cytochrome P450 2C9 (Homo sapiens, UniProt P11712); details: bti-tn-5b1-4; also: in other assays of this panel Not Active means under 50% inhibition at 10 µM
[10] = biological target: T3, Glucocorticoid receptor (Homo sapiens, UniProt P04150); details: hela s3; also: in other assays of this panel Not Active means under 50% inhibition at 10 µM
T3 sequence (P04150 whole entry): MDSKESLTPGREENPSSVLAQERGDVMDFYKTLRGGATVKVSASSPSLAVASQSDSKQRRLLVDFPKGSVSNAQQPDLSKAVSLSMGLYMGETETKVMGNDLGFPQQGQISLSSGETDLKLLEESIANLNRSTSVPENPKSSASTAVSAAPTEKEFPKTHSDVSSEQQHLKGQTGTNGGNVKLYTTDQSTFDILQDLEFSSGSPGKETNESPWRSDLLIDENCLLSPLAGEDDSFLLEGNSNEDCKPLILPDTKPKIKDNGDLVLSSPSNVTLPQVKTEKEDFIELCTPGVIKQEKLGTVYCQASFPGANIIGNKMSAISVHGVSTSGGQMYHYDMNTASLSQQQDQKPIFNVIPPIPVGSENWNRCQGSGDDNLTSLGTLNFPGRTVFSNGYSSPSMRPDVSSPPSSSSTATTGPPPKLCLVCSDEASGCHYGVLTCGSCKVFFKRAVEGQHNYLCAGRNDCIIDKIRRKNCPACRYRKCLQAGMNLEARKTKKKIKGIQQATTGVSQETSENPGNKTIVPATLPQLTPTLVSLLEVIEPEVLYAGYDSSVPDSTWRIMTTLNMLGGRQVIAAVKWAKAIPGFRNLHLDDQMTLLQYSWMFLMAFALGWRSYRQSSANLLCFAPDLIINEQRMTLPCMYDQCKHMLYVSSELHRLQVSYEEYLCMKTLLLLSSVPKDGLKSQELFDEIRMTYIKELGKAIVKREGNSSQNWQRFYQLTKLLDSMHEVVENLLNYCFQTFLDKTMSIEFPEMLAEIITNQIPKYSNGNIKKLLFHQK

Voltage-gated inwardly rectifying potassium channel KCNH2, sequence (Q12809 whole entry): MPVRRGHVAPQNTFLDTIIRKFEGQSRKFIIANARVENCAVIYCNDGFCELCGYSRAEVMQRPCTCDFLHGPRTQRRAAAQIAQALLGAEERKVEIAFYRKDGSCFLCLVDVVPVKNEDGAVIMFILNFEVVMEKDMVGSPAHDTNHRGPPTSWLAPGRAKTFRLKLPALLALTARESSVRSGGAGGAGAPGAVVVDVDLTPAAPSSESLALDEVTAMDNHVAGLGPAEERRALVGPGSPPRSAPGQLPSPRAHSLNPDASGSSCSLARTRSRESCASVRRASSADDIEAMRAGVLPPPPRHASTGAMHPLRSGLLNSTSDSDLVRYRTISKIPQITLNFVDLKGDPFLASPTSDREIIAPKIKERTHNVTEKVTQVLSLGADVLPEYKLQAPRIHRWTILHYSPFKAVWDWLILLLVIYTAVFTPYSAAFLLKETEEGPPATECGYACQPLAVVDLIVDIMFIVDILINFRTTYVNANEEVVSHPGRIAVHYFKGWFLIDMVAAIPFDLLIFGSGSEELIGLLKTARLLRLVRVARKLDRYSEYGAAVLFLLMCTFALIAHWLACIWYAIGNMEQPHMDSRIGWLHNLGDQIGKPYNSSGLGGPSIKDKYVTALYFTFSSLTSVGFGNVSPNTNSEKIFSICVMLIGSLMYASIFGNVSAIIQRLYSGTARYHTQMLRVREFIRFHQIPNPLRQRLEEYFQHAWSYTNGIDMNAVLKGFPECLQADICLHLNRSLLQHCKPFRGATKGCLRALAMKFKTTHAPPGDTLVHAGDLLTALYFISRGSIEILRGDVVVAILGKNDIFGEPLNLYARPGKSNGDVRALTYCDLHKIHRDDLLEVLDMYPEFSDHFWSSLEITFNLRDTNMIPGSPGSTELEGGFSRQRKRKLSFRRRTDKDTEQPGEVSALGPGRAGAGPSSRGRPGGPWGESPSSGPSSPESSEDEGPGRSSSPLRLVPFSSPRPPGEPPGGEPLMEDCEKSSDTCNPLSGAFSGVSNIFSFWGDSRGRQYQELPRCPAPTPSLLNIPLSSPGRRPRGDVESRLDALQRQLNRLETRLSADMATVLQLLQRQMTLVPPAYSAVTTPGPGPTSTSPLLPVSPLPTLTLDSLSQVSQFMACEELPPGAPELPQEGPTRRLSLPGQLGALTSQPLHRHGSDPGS
Cytochrome P450 2D6, sequence (P10635 whole entry): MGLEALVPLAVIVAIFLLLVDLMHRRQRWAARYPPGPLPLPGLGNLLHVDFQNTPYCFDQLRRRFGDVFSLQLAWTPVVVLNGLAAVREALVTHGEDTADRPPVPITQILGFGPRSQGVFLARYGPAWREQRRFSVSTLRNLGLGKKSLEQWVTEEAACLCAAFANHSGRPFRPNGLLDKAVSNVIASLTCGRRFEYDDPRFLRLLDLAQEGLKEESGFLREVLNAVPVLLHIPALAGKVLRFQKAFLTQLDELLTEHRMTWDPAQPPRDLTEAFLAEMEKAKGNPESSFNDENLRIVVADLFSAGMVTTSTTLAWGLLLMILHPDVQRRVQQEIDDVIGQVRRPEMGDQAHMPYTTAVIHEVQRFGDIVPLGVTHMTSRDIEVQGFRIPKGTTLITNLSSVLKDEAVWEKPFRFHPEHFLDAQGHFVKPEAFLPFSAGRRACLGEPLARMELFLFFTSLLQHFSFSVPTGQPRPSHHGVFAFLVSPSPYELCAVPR
Cytochrome P450 3A4, sequence (P08684 whole entry): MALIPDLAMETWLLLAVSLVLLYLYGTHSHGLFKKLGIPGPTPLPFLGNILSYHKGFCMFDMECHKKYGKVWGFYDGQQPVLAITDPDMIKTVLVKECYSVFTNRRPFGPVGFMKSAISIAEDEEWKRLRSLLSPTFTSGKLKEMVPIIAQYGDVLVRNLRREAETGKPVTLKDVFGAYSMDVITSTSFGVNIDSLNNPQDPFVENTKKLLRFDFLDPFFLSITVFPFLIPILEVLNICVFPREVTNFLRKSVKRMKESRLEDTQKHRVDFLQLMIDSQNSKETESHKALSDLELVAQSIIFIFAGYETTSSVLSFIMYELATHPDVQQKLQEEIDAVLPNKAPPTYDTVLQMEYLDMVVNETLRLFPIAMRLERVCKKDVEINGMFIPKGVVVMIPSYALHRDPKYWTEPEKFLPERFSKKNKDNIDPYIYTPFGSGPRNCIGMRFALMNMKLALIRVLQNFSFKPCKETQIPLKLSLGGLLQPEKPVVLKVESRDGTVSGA
Cytochrome P450 2C9, sequence (P11712 whole entry): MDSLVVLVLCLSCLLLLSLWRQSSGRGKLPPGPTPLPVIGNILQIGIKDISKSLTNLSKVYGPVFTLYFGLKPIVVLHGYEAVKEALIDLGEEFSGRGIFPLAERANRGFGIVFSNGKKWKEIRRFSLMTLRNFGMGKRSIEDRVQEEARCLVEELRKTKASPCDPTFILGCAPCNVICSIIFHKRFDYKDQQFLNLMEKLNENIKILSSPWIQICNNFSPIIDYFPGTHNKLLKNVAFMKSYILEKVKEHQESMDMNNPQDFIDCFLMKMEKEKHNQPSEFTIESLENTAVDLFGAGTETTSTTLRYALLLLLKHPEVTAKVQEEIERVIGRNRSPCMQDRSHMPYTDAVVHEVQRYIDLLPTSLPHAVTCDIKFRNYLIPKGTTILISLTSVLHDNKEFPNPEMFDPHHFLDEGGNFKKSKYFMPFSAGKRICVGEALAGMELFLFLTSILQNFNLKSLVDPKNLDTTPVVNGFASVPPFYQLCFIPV
Cytochrome P450 2C19, sequence (P33261 whole entry): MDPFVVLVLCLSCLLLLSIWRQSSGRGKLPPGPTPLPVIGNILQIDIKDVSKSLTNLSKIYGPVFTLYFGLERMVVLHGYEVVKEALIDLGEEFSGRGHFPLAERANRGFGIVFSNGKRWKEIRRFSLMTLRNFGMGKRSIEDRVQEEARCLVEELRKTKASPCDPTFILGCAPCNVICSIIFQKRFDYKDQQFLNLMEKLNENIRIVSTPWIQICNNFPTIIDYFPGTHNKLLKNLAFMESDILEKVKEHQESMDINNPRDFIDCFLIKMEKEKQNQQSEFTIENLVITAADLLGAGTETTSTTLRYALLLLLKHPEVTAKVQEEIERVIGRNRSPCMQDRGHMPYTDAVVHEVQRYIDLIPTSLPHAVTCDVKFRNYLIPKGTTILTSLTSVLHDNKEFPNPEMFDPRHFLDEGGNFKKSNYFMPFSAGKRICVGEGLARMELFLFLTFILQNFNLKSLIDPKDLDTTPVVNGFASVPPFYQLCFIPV
Estrogen receptor beta, sequence (Q92731 whole entry): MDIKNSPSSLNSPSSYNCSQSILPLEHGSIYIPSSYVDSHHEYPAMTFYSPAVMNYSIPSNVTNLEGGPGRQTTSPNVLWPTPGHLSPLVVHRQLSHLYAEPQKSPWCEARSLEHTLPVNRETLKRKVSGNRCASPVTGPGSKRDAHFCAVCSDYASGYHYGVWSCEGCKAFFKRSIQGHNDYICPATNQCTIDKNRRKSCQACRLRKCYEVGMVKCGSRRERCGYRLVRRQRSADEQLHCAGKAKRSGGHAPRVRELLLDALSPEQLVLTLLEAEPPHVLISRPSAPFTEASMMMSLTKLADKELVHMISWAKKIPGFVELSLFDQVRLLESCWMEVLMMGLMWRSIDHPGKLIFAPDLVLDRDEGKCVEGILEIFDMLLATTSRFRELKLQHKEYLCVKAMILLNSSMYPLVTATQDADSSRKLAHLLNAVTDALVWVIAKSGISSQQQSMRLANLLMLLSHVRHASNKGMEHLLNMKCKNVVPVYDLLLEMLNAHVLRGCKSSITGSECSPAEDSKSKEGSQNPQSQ
Sodium-dependent noradrenaline transporter, sequence (P23975 whole entry): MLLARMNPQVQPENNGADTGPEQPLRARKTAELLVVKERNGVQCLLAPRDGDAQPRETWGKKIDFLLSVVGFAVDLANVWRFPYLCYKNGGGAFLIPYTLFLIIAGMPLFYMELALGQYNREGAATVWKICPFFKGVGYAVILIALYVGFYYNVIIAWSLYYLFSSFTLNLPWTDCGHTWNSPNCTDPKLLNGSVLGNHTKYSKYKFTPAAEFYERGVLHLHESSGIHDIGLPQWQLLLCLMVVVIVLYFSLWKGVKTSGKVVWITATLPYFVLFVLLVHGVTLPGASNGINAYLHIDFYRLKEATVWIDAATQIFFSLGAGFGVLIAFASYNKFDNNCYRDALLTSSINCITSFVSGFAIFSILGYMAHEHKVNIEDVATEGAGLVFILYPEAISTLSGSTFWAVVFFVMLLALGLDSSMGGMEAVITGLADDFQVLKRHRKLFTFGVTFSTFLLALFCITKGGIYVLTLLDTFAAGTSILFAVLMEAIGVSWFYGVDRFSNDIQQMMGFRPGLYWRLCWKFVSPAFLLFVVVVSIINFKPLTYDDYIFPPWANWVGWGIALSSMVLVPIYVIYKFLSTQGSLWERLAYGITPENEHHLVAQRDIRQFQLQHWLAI

CC(C)(C)NCC(O)c1ccc(O)c(CO)c1 (centres undefined) [ALBUTEROL]
Not Active: IC50 [1] | Ki [1] | IC50 [2] | IC50 [3] | Ki [3] | IC50 [4] | Ki [4] | IC50 [5] | Ki [5] | IC50 [6] | IC50 [7] | Ki [7] | IC50 [8] | IC50 [9] | Ki [9] | IC50 [10]

Oc1c(I)cc(I)c2cccnc12 [IODOQUINOL]
Not Active: IC50 [1] | Ki [1] | IC50 [2] | IC50 [3] | Ki [3] | IC50 [4] | Ki [4] | IC50 [5] | Ki [5] | IC50 [6] | IC50 [7] | Ki [7] | IC50 [8] | IC50 [9] | Ki [9] | IC50 [10]

NNC(=O)c1ccncc1 [ISONIAZID]
Not Active: IC50 [1] | Ki [1] | IC50 [2] | IC50 [3] | Ki [3] | IC50 [4] | Ki [4] | IC50 [5] | Ki [5] | IC50 [6] | IC50 [7] | Ki [7] | IC50 [8] | IC50 [9] | Ki [9] | IC50 [10]

CO[C@@H]1[C@@H](O[C@@H]2O[C@H](C)[C@@H](O[C@H]3C[C@@](C)(O)[C@@H](OC(=O)CC(C)C)[C@H](C)O3)[C@H](N(C)C)[C@H]2O)[C@@H](CC=O)C[C@@H](C)[C@@H](O)/C=C/C=C/C[C@@H](C)OC(=O)C[C@H]1O [KITASAMYCIN]
Not Active: IC50 [1] | Ki [1] | IC50 [2] | IC50 [3] | Ki [3] | IC50 [4] | Ki [4] | IC50 [5] | Ki [5] | IC50 [6] | IC50 [7] | Ki [7] | IC50 [8] | IC50 [9] | Ki [9] | IC50 [10]

CCC[C@@H]1C[C@@H](C(=O)N[C@@H]([C@H]2O[C@H](SC)[C@H](O)[C@@H](O)[C@H]2O)[C@@H](C)O)N(C)C1 [LINCOMYCIN]
Not Active: IC50 [1] | Ki [1] | IC50 [2] | IC50 [3] | Ki [3] | IC50 [4] | Ki [4] | IC50 [5] | Ki [5] | IC50 [6] | IC50 [7] | Ki [7] | IC50 [8] | IC50 [9] | Ki [9] | IC50 [10]

COc1c(C)c2c(c(O)c1C/C=C(\C)CCC(=O)OCCN1CCOCC1)C(=O)OC2 [MYCOPHENOLATE MOFETIL]
Not Active: IC50 [1] | Ki [1] | IC50 [2] | IC50 [3] | Ki [3] | IC50 [4] | Ki [4] | IC50 [5] | Ki [5] | IC50 [6] | IC50 [7] | Ki [7] | IC50 [8] | IC50 [9] | Ki [9] | IC50 [10]

O=[N+]([O-])c1cc([As](=O)(O)O)ccc1O [ROXARSONE]
Not Active: IC50 [1] | Ki [1] | IC50 [2] | Ki [2] | IC50 [3] | Ki [3] | IC50 [4] | Ki [4] | IC50 [5] | Ki [5] | IC50 [6] | Ki [6] | IC50 [7] | Ki [7] | IC50 [8] | Ki [8] | IC50 [9] | Ki [9] | IC50 [10] | Ki [10]

NC(=O)c1ccccc1O [SALICYLAMIDE]
Not Active: IC50 [1] | Ki [1] | IC50 [2] | IC50 [3] | Ki [3] | IC50 [4] | Ki [4] | IC50 [5] | Ki [5] | IC50 [6] | IC50 [7] | Ki [7] | IC50 [8] | IC50 [9] | Ki [9] | IC50 [10]

Cc1ncc([N+](=O)[O-])n1CC(C)O (centres undefined) [SECNIDAZOLE]
Not Active: IC50 [1] | Ki [1] | IC50 [2] | IC50 [3] | Ki [3] | IC50 [4] | Ki [4] | IC50 [5] | Ki [5] | IC50 [6] | IC50 [7] | Ki [7] | IC50 [8] | IC50 [9] | Ki [9] | IC50 [10]

CN(N=O)C(=O)N[C@@H](C=O)[C@@H](O)[C@H](O)[C@H](O)CO [STREPTOZOCIN]
Not Active: IC50 [1] | Ki [1] | IC50 [2] | IC50 [3] | Ki [3] | IC50 [4] | Ki [4] | IC50 [5] | Ki [5] | IC50 [6] | IC50 [7] | Ki [7] | IC50 [8] | IC50 [9] | Ki [9] | IC50 [10]
